Source: patent US7964352B2, “3′-OH unblocked nucleotides and nucleosides, base modified with labels and photocleavable, terminating groups and methods for their use in DNA sequencing” (priority 2006, dated 2011)
Read-outs that look alike come from different tables or passages of the source.

Columns and labels:
[1] = target: T1, Vent (3′-exo-) DNA polymerase (Thermococcus litoralis, UniProt P30317, D141A/DEL1082-1471/DEL495-1032/E143A); assay: Polymerase end-point (PEP) assay, Vent (3′-exo-); type: biochemical
T1 construct: purchased
T1 sequence (P30317 other isoform, or with tags, fused parts or gaps D141A/E143A/DEL495-1032/DEL1082-1471): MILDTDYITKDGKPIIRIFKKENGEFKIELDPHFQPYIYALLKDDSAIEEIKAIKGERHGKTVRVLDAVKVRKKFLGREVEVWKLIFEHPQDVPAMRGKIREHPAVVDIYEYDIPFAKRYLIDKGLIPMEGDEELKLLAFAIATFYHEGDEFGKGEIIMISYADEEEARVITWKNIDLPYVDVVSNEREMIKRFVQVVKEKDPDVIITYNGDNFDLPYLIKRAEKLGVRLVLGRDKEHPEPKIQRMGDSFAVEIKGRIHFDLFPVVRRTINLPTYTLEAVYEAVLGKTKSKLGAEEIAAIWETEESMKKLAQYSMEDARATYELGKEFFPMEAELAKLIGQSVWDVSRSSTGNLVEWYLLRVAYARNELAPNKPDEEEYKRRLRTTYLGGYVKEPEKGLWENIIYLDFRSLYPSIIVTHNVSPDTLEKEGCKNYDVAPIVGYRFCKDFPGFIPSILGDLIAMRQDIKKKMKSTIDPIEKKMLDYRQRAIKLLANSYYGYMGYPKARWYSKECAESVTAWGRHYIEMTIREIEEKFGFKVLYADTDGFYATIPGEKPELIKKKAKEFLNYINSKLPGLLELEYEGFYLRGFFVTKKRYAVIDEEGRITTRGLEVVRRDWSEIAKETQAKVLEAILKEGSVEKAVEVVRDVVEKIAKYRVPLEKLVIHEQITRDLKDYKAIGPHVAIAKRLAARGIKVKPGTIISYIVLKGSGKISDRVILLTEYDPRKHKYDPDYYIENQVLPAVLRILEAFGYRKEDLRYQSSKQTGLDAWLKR
From the text: (§1) Numerous groups have employed qualitative, Sanger-based assays to estimate relative incorporation efficiencies of terminating nucleotide analogs compared to their natural nucleotide counterparts. Although useful, the ability to assay modified nucleotide analogs in the absence of natural nucleotides is not feasible using these assays. These two limitations led to a quantitative, polymerase end-point (PEP) assay, which is utilized in a high-throughput manner for screening numerous modified nucleotides against a number of well-characterized, commercially available polymerases. Identification of lead compounds with a specific DNA polymerase could then be prioritized for further kinetic studies. The PEP assay is designed with the polymerase concentration in excess of the primer/template complex (i.e., this complex is fully bounded with polymerase at the start of the titration), thereby limiting reaction to nucleotide binding and nucleotyl coupling steps. Limiting amounts of the desired nucleotide are then titrated across the appropriate concentration range (generally three orders of magnitude) to observe extension of a dye-labeled primer by gel electrophoresis. The end-point concentration is determined from a semi-log plot where the number of moles of substrate and product are equal, called the IC50 (i.e., incorporation concentration at 50%) value.
(§2) For all polymerases evaluated in this study, 40 nM of oligo-template (5′-TACGGAGCA-[…], interrogation base is underlined and bolded) was annealed to 5 nM BODIPY-FL labeled primer (5′-TTGTAAAACGACGGCCAGT) in 1× ThermoPol buffer (20 mM Tris-HCl, pH 8.8; 10 mM (NH4)2SO4, 10 mM KCl; 2 mM MgSO4; 0.1% Triton X-100, New England BioLabs) at 80° C. for 30 seconds, 57° C. for 30 seconds, and then cooled to 4° C. The primer/template complex is then diluted by one-half (i.e., its final concentration is 2.5 nM in a volume of 10 μL) by the addition of DNA polymerase, nucleotide analog, and ThermoPol buffer. This defines the lower limit of the IC50 value for nucleotide titrations to 1.25 nM (i.e., [primer]=[primer+1]). […]

[2] = target: T2, AMPLITAQ DNA polymerase, FS (Taq FS) (Thermus aquaticus, UniProt P19821, F667Y/G46D); assay: Polymerase end-point (PEP) assay, Taq FS; type: biochemical; details: Taq FS: 68° C.; incorporation concentration at 50%
T2 construct: purchased
T2 sequence (P19821 whole entry G46D/F667Y): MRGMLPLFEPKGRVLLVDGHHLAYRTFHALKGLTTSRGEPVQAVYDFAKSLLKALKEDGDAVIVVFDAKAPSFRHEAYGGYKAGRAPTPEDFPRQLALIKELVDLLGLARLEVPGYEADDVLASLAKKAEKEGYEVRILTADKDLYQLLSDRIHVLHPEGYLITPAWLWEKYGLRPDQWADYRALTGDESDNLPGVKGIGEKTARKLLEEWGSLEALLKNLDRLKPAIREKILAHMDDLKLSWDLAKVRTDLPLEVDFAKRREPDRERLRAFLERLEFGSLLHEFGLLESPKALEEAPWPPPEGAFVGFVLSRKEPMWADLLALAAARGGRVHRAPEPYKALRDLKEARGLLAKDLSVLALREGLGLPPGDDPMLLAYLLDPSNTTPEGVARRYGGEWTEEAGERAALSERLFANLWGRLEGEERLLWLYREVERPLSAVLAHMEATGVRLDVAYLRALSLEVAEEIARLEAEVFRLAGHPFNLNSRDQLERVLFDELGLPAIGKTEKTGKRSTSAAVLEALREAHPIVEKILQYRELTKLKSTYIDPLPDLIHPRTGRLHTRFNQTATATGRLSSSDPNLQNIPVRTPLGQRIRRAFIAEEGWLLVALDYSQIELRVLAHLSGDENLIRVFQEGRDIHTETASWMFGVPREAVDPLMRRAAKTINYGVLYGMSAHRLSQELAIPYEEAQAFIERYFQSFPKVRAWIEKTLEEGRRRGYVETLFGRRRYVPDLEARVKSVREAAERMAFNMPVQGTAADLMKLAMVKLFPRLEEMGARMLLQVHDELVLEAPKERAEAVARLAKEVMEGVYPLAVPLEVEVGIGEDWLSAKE
From the text: as §1, §2

[3] = target: T3, Klenow (3′-exo-) DNA polymerase (Escherichia coli, UniProt P00582, D355A/E357A); assay: Polymerase end-point (PEP) assay, Klenow (3′-exo-); type: biochemical; details: Klenow (3′-exo-): 37° C.; incorporation concentration at 50%
T3 construct: Klenow(-exo-) DNA polymerase; purchased
T3 sequence (P00582 324-928 D355A/E357A): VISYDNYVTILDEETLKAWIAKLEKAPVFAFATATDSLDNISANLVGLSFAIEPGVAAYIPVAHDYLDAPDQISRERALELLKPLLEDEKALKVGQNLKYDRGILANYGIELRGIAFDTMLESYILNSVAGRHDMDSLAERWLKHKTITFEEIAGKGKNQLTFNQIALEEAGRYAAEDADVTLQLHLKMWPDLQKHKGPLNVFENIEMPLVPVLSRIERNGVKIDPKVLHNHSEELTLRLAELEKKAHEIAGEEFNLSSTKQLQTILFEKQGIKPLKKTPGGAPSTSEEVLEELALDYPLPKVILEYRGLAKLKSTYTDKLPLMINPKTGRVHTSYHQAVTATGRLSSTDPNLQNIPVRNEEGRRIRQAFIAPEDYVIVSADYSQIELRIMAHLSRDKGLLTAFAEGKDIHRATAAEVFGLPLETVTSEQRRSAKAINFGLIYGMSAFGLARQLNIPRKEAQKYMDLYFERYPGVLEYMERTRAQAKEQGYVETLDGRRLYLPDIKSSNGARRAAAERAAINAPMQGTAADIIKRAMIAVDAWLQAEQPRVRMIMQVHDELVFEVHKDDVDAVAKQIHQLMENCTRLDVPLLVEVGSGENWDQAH
From the text: as §1, §2

T[…] polymerase = target: T4, T[…] polymerase (Thermococcus sp., UniProt Q56366, A485L/D141A/E143A); assay: Polymerase end-point (PEP) assay, Therminator; type: biochemical, Thermococcus species 9°N-7
T4 construct: purchased
T4 sequence (Q56366 whole entry D141A/E143A/A485L): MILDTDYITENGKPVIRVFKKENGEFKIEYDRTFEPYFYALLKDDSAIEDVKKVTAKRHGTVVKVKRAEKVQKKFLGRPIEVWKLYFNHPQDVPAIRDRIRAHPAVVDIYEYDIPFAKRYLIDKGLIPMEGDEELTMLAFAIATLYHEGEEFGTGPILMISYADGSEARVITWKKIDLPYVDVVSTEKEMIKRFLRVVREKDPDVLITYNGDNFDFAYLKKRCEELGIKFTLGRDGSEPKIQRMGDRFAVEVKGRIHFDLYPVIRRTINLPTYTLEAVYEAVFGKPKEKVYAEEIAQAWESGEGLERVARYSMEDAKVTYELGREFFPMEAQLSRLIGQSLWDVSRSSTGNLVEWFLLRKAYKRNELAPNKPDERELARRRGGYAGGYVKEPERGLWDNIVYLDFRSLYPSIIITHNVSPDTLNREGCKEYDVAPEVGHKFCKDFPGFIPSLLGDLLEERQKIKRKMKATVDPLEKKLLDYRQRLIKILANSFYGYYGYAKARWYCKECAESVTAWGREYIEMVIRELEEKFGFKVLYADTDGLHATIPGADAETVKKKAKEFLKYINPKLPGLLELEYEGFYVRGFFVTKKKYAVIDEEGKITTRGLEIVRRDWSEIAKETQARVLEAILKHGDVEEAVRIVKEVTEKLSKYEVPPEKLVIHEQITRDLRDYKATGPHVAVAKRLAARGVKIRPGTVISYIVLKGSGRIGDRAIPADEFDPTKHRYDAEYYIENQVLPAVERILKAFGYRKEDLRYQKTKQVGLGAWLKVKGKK
From the text: as §1
(§3) For all polymerases evaluated in this study, 40 nM of oligo-template (5′-TACGGAGCA-[…], interrogation base is underlined and bolded) was annealed to 5 nM BODIPY-FL labeled primer (5′-TTGTAAAACGACGGCCAGT) in 1× ThermoPol buffer (20 mM Tris-HCl, pH 8.8; 10 mM (NH4)2SO4, 10 mM KCl; 2 mM MgSO4; 0.1% Triton X-100, New England BioLabs) at 80° C. for 30 seconds, 57° C. for 30 seconds, and then cooled to 4° C. The primer/template complex is then diluted by one-half (i.e., its final concentration is 2.5 nM in a volume of 10 μL) by the addition of DNA polymerase, nucleotide analog, and ThermoPol buffer. This defines the lower limit of the IC50 value for nucleotide titrations to 1.25 nM (i.e., [primer]=[primer+1]). Polymerase reactions were incubated at their appropriate temperature for 10 minutes, then cooled to 4° C. and quenched with 10 μL of stop solution (98% deionized formamide; 10 mM Na2EDTA, pH 8.0; 25 mg/mL Blue Dextran, MW 2,000,000). Stopped reactions were heated to 90° C. for 30 seconds, and then placed on ice. […] The PEP assays were performed in triplicate for each DNA polymerase/nucleotide analog combination to calculate its IC50 values±one standard deviation.
(§4) The number of activity units for eight commercially available, 3′-exonuclease deficient (3′-exo-) DNA polymerases was first determined by titration with 2′-deoxyadenosine triphosphate (dATP, concentration range from 0.1 nM to 100 nM) with the goal of reaching the PEP IC50 limit of 1.25 nM (data not shown). In general, increasing the number of units reduced the IC50 values for dATP towards this limit, with exception with Taq, THERMINATOR™, and THERMINATOR™ II. For these enzymes, there was an increase in IC50 values for dATP with increasing enzyme concentration, which was not investigated further and presumed to be due to a direct relationship with increasing enzyme concentration and phosphorolysis. For these cases, the number of units used for subsequent PEP assays were those activity units that gave the lowest IC50 values for dATP.
(§5) WW1p129 and ddATP were then titrated using the PEP assay with the eight DNA polymerases (unit activities previously defined) in the concentration range of either 0.1 nM to 100 nM, 1 nM to 1μM, 10 nM to 10μM, or 100 nM to 100 μM (see Table 1). UV-light sensitive compounds were handled at all times in low light conditions to minimize conversion to dATP.

T[…] DNA polymerase = target: T5, T[…] DNA polymerase (Thermococcus sp., UniProt Q56366, A485L/D141A/E143A/Y409V); assay: Polymerase end-point (PEP) assay, Therminator II; type: biochemical, Thermococcus species 9°N-7; details: Therminator II: 75° C.; incorporation concentration at 50%
T5 construct: purchased
T5 sequence (Q56366 whole entry D141A/E143A/Y409V/A485L): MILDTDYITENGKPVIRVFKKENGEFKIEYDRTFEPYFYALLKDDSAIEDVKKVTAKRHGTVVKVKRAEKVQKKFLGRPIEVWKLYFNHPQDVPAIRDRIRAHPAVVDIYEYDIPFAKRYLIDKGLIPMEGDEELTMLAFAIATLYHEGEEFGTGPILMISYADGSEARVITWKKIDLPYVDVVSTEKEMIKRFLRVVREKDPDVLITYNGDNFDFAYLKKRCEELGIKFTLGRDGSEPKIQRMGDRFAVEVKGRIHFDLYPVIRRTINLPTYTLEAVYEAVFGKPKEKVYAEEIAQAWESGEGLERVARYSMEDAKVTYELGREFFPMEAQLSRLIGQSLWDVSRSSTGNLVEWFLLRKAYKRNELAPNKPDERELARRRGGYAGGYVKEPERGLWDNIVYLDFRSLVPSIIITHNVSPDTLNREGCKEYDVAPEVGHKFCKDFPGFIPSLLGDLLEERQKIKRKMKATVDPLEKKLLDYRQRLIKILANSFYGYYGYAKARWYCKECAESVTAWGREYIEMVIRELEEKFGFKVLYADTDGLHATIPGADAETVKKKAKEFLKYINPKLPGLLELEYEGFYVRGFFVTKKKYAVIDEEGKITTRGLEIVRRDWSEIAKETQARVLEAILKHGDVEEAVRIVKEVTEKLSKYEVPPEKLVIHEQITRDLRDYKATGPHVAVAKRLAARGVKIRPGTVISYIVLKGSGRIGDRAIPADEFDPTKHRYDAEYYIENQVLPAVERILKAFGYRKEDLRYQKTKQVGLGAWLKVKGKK
From the text: as §1, §2

Taq DNA polymerase = target: T6, Taq DNA polymerase (Thermus aquaticus, UniProt P19821); assay: Polymerase end-point (PEP) assay, Taq; type: biochemical; details: Taq: 68° C.; incorporation concentration at 50%
T6 construct: purchased
T6 sequence (P19821 whole entry): as the sequence (P19821 whole entry G46D/F667Y) above, with D46G, Y667F counted along it
From the text: as §1, §2

[4] = target: T7, DeepVent (3′-exo-) DNA polymerase (Pyrococcus sp., UniProt Q51334, D141A/DEL493-1029/E143A); assay: Polymerase end-point (PEP) assay, DeepVent (3′-exo-); type: biochemical, Pyrococcus species GB-D
T7 construct: purchased
T7 sequence (Q51334 other isoform, or with tags, fused parts or gaps D141A/E143A/DEL493-1029): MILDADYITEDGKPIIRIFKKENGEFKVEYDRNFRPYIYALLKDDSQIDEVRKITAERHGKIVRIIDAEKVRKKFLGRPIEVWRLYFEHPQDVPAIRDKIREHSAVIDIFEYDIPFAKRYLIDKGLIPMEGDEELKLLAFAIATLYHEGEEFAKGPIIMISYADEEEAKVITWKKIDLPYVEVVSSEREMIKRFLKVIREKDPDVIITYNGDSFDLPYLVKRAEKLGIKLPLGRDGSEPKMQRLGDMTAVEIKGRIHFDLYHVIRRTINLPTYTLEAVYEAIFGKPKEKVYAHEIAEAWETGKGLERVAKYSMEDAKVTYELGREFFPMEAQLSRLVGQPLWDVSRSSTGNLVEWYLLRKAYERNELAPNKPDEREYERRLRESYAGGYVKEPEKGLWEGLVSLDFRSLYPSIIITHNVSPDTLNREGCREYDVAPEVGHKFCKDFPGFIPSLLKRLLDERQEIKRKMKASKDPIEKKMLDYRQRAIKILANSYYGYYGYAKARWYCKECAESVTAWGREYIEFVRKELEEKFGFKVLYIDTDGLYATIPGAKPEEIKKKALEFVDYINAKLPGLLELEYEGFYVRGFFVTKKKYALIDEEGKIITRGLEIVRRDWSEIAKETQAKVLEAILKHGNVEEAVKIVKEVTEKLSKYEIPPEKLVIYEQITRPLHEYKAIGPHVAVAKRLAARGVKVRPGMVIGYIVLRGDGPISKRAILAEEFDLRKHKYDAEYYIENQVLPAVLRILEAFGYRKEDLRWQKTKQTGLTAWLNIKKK
From the text: as §1, §2

Bst DNA polymerase = target: T8, Bst DNA polymerase (Geobacillus stearothermophilus, UniProt P52026); assay: Polymerase end-point (PEP) assay, Bst; type: biochemical
T8 construct: purchased
T8 sequence (P52026 1-876): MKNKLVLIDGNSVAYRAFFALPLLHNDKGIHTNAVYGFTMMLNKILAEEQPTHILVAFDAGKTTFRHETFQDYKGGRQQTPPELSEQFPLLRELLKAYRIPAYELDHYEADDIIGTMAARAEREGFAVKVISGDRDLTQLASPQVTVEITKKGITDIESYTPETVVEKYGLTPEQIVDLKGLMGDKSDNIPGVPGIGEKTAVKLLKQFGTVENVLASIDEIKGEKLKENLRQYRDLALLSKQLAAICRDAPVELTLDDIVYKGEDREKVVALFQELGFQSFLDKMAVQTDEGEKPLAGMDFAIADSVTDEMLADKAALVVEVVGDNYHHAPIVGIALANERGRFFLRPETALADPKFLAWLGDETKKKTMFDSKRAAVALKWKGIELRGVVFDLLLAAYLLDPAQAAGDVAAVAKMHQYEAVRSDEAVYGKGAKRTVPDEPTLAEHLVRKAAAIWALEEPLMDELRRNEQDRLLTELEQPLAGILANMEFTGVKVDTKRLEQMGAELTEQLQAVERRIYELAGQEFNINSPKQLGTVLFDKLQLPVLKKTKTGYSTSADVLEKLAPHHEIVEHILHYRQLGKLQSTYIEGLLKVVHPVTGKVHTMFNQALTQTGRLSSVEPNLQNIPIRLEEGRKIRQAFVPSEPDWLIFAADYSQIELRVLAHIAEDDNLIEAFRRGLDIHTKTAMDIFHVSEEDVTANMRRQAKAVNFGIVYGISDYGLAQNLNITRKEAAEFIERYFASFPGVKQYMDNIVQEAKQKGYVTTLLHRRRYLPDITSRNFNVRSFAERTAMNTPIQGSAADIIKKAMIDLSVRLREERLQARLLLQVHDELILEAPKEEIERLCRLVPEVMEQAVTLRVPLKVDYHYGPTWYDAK
From the text: as §1, §3, §4, §5

[5] = Therminator: 75° C., incorporation concentration at 50%, Table 1, read-out: IC50 values
[6] = Vent (3′-exo-): 72° C., incorporation concentration at 50%, read-out: IC50 values
[7] = Bst: 65° C., IC50 = incorporation concentration at 50%, Table 1, read-out: IC50 values
[8] = Table 2, incorporation concentration at 50%, read-out: IC50 values, Bst
[9] = Table 2, incorporation concentration at 50%, read-out: IC50 values, Therminator
[10] = DeepVent (3′-exo-): 72° C., incorporation concentration at 50%, read-out: IC50 values

Compound | IC50 [2] | IC50 [3] | IC50 (T[…] polymerase; [5]) | IC50 (T[…] DNA polymerase) | IC50 (Taq DNA polymerase) | IC50 (Bst DNA polymerase; [8]) | IC50 (T[…] polymerase; [9]) | further results
Nc1ncnc2c1ncn2[C@H]1C[C@H](O)[C@@H](COP(=O)(O)OP(=O)(O)OP(=O)(O)O)O1 [dATP, 2′-deoxyadenosine triphosphate] | 5.3 ± 0.1 nM | 1.6 ± 0.1 nM | 2.3 ± 0.3 nM | 4.4 ± 0.6 nM | 5.5 ± 0.5 nM |  |  | IC50 [1]: 1.6 ± 0.2 nM; IC50 [4]: 2.8 ± 0.2 nM
O=[N+]([O-])c1ccccc1CNc1ncnc2c1ncn2[C@H]1C[C@H](O)[C@@H](COP(=O)(O)OP(=O)(O)OP(=O)(O)O)O1 [WW1p129, N^6-(2-Nitrobenzyl)-2′-deoxyadenosine-5′-triphosphate] | 890 ± 60 nM | 4.3 ± 0.2 nM | 3.1 ± 0.4 nM | 7.8 ± 0.7 nM | 2100 ± 200 nM | 39 ± 9 nM | 2.5 ± 0.4 nM | IC50 [1, 6]: 2.1 ± 0.2 nM; IC50 (Bst DNA polymerase; [7]): 21 ± 3 nM; IC50 [4, 10]: 11 ± 0.6 nM
Nc1ncnc2c1ncn2[C@H]1CC[C@@H](COP(=O)(O)OP(=O)(O)OP(=O)(O)O)O1 [ddATP] | 3.3 ± 0.1 nM | 29 ± 5 nM | 9.7 ± 1.1 nM | 230 ± 30 nM | 12600 ± 900 nM |  |  | IC50 [1, 6]: 550 ± 40 nM; IC50 (Bst DNA polymerase; [7]): 370 ± 30 nM; IC50 [4, 10]: 3400 ± 400 nM
CN(C)c1ccc2c(-c3cc(C(=O)NCC#Cc4ccc(CNc5ccn([C@H]6C[C@H](O)[C@@H](COP(=O)(O)OP(=O)(O)OP(=O)(O)O)O6)c(=O)n5)c([N+](=O)[O-])c4)ccc3C(=O)[O-])c3ccc(=[N+](C)C)cc-3oc2c1 [WW2p080, 6-TAMRA Labeled N^4-[4-(3-Amino-1-propynyl)-2-nitrobenzyl]-2′-deoxycytidine-5′-triphosphate] |  |  |  |  |  |  | 3 ± 0.6 nM | 
O=c1nc(NCc2ccccc2[N+](=O)[O-])ccn1[C@H]1C[C@H](O)[C@@H](COP(=O)(O)OP(=O)(O)OP(=O)(O)O)O1 [WW2p044, N^4-(2-Nitrobenzyl)-2′-deoxycytidine-5′-triphosphate] |  |  |  |  |  | 57 ± 11 nM |  | IC50 (T[…] polymerase): 1.8 ± 0.2 nM
6-JOE Labeled 5-[4-(3-Amino-1-propynyl)-2-nitrobenzyloxymethyl]-2′-deoxyuridine-5′-triphosphate [WW2p075] |  |  |  |  |  |  | 3.8 ± 1.1 nM | 
Nc1nc(OCc2ccc(C#CCNC(=O)c3ccc(C(=O)[O-])c(C4=c5cc6c7c(c5Oc5c4cc4c8c5CCCN8CCC4)CCC[N+]=7CCC6)c3)cc2[N+](=O)[O-])c2ncn([C@H]3C[C@H](O)[C@@H](COP(=O)(O)OP(=O)(O)OP(=O)(O)O)O3)c2n1 [WW2p121, 6-ROX Labeled O^6-[4-(3-Amino-1-propynyl)-2-nitrobenzyl]-2′-deoxyguanosine-5′-triphosphate] |  |  |  |  |  |  |  | IC50 (T[…] polymerase): 6.3 ± 0.4 nM
Nc1nc(OCc2ccccc2[N+](=O)[O-])c2ncn([C@H]3C[C@H](O)[C@@H](COP(=O)(O)OP(=O)(O)OP(=O)(O)O)O3)c2n1 [WW2p077, O^6-(2-Nitrobenzyl)-2′-deoxyguanosine-5′-triphosphate] |  |  |  |  |  | 3800 ± 200 nM | 6.9 ± 0.5 nM | 
O=c1[nH]c(=O)n([C@H]2C[C@H](O)[C@@H](COP(=O)(O)OP(=O)(O)OP(=O)(O)O)O2)cc1COCc1ccccc1[N+](=O)[O-] [VL3p03085, 5-(2-Nitrobenzyloxymethyl)-2′-deoxyuridine-5′-triphosphate] |  |  |  |  |  | 138 ± 38 nM | 1.1 ± 0.1 nM | 
